system: HIV-1 (H9IIIB strain); assay: Cell-based HIV infection assay using a reporter (Cell-Based), MT4-GFP cells; conditions: Human immunodeficiency virus 1, MT4-GFP cells infected with HIV-1 H9IIIB; 50% normal human serum; mean of at least two independent experiments; read-out: Cell-based IP
Outline: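 MT4-GFP cells (HIV LTR-driven GFP) infected 24 h with HIV-1 H9IIIB at low MOI, then washed and plated with compounds in RPMI + 50% normal human serum, 0.4% DMSO final. Green cells counted at 24 and 48 h; R0 = 48 h/24 h ratio, inhibition normalized to DMSO and triple-drug control; IC50 from 4-parameter fit.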

Point of comparison: `CC(C)[C@H](c1cccc(Cl)c1)[C@H](N)C(=O)Nc1cccc(F)c1CC[C@H]1CNC[C@H](C)N1S(=O)(=O)C1CC1` [Example 215, (βR)-3-chloro-N-(2-{2-[(2S,6S)-1-(cyclopropylsulfonyl)-6-methylpiperazin-2-yl]ethyl}-3-fluorophenyl)-β-(1-methylethyl)-L-phenylalaninamide], IC50 2.5 µM. Against it:
- O=Cc1ccc(S(=O)(=O)N2CCNC[C@@H]2CCc2c(F)cncc2NC(=O)C[C@@H](c2ccc(F)cc2)c2cc(F)cc(F)c2)cc1 [Example 319, (3S)-3-(3,5-difluorophenyl)-N-[5-fluoro-4-(2-{(2S)-1-[(4-formylphenyl)sulfonyl]piperazin-2-yl}ethyl)pyridin-3-yl]-3-(4-fluorophenyl)propanamide] — 42-fold lower, 0.059 µM
- COC(=O)N[C@H](C(=O)N[C@H]1CCCC[C@@H]1CC[C@H]1CNCCN1S(=O)(=O)c1ccccc1)[C@@H](c1ccc(Cl)cc1)C1CCOCC1 [Example 355, methyl ((1R,2S)-1-(4-chlorophenyl)-3-oxo-3-(((1S,2R)-2-(2-((S)-1-(phenylsulfonyl)piperazin-2-yl)ethyl)cyclohexyl)amino)-1-(tetrahydro-2H-pyran-4-yl)propan-2-yl)carbamate] — 180-fold lower, 0.014 µM
- COC(=O)N[C@H](C(=O)Nc1cccc(F)c1CC[C@H]1CNC[C@H](C)N1S(=O)(=O)C1CC1)[C@@H](c1ccc(Cl)cc1)c1cc(F)cc(F)c1 [Example 201, (βS)-4-chloro-N-(2-{2-[(2S,6S)-1-(cyclopropylsulfonyl)-6-methylpiperazin-2-yl]ethyl}-3-fluorophenyl)-β-(3,5-difluorophenyl)-Nα-(methoxycarbonyl)-L-phenylalaninamide] — 160-fold lower, 0.016 µM
- C[C@H]1CNC[C@H](CCc2c(F)cccc2NC(=O)[C@@H](N)C(c2cccc(F)c2)c2cccc(F)c2)N1S(=O)(=O)C1CC1 [Example 158, N-(2-{2-[(2S,6S)-1-(cyclopropylsulfonyl)-6-methylpiperazin-2-yl]ethyl}-3-fluorophenyl)-3-fluoro-β-(3-fluorophenyl)-L-phenylalaninamide] — 33-fold lower, 0.075 µM
- C[C@@H]1CN(S(=O)(=O)c2ccccc2)[C@@H](CCc2c(F)cccc2NC(=O)CC(c2ccc(F)cc2)c2ccc(F)cc2)CN1 [Example 88, N-(3-fluoro-2-{2-[(2S,5R)-5-methyl-1-(phenylsulfonyl)piperazin-2-yl]ethyl}phenyl)-3,3-bis(4-fluorophenyl) propanamide] — 4.8-fold lower, 0.52 µM
- C[C@@H]1CNC[C@H](CCc2c(F)cccc2NC(=O)[C@@H](N)C(c2cccc(F)c2)c2cccc(F)c2)N1S(=O)(=O)C1CC1 [Example 181, N-(2-{2-[(2S,6R)-1-(cyclopropylsulfonyl)-6-methylpiperazin-2-yl]ethyl}-3-fluorophenyl)-3-fluoro-β-(3-fluorophenyl)-L-phenylalaninamide] — 15-fold lower, 0.17 µM
- C[C@@H]1CNC[C@H](CCc2c(F)cccc2NC(=O)[C@@H](N)[C@H](c2cccc(F)c2)c2cccc(Cl)c2)N1S(=O)(=O)C1CC1 [Example 203, (βR)-3-chloro-N-(2-{2-[(2S,6R)-1-(cyclopropylsulfonyl)-6-methylpiperazin-2-yl]ethyl}-3-fluorophenyl)-β-(3-fluorophenyl)-L-phenylalaninamide] — 4-fold lower, 0.62 µM
- CS(=O)(=O)N1CCNC[C@@H]1CCc1c(F)cccc1NC(=O)[C@@H](N)[C@@H](c1ccc(Cl)cc1)C1CCOCC1 [Example 65, (βR)-4-chloro-N-(3-fluoro-2-{2-[(2S)-1-(methylsulfonyl)piperazin-2-yl]ethyl}phenyl)-β-(tetrahydro-2H-pyran-4-yl)-L-phenylalaninamide] — 21-fold lower, 0.12 µM
- CC(=O)Nc1nc(S(=O)(=O)N2CCNC[C@@H]2CCc2c(F)cncc2NC(=O)C[C@@H](c2ccc(F)cc2)c2cc(F)cc(F)c2)c(C)s1 [Example 309, (3S)-N-(4-{2-[(2S)-1-{[2-(acetylamino)-5-methyl-1,3-thiazol-4-yl]sulfonyl}piperazin-2-yl]ethyl}-5-fluoropyridin-3-yl)-3-(3,5-difluorophenyl)-3-(4-fluorophenyl)propanmide] — 18-fold lower, 0.14 µM
- COC(=O)N[C@H](C(=O)Nc1cncc(F)c1CC[C@H]1CNC[C@@H](C)N1S(=O)(=O)c1ccc(Cl)cc1)[C@@H](c1ccc(Cl)cc1)C1CCOCC1 [Example 281, (βR)-4-chloro-N-[4-(2-{(2S,6R)-1-[(4-chlorophenyl)sulfonyl]-6-methylpiperazin-2-yl}ethyl)-5-fluoropyridin-3-yl]-Nα-(methoxycarbonyl)-β-(tetrahydro-2H-pyran-4-yl)-L-phenylalaninamide] — 190-fold lower, 0.013 µM
- C[C@H]1CNC[C@H](CCc2c(F)cccc2NC(=O)[C@@H](N)[C@@H](c2ccc(F)c(F)c2)C2CCOCC2)N1S(=O)(=O)c1ccccc1 [Example 289, (βR)-3,4-difluoro-N-(3-fluoro-2-{2-[(2S,6S)-6-methyl-1-(phenylsulfonyl)piperazin-2-yl]ethyl}phenyl)-β-(tetrahydro-2H-pyran-4-yl)-L-phenylalaninamide] — 110-fold lower, 0.023 µM
- CC(=O)N[C@H](C(=O)Nc1cncc(F)c1CC[C@H]1CNCCN1S(=O)(=O)C1CC1)[C@@H](c1ccc(F)cc1)c1cc(F)cc(F)c1 [Example 80, (βS)-Nα-acetyl-N-(4-{2-[(2S)-1-(cyclopropylsulfonyl)piperazin-2-yl]ethyl}-5-fluoropyridin-3-yl)-3,5-difluoro-β-(4-fluorophenyl)-L-phenylalaninamide] — 38-fold lower, 0.066 µM
- O=C(C[C@@H](c1ccc(F)cc1)c1cc(F)cc(F)c1)Nc1cncc(F)c1CC[C@H]1CNCCN1S(=O)(=O)N1CCCC(F)(F)C1 [Example 332, (3S)-3-(3,5-difluorophenyl)-N-[4-(2-{(2S)-1-[(3,3-difluoropiperidin-1-yl)sulfonyl]piperazin-2-yl}ethyl)-5-fluoropyridin-3-yl]-3-(4-fluorophenyl)propanamide] — 6.1-fold lower, 0.41 µM
- O=C(C[C@@H](c1ccc(F)cc1)c1cc(F)cc(F)c1)Nc1cncc(F)c1CC[C@H]1CNCCN1S(=O)(=O)c1ccc(-c2ccccn2)s1 [Example 311, (3S)-3-(3,5-difluorophenyl)-3-(4-fluorophenyl)-N-[5-fluoro-4-(2-{(2S)-1-[(5-pyridin-2-ylthiophen-2-yl)sulfonyl]piperazin-2-yl}ethyl)pyridin-3-yl]propanamide] — 120-fold lower, 0.02 µM
- N[C@H](C(=O)N[C@@H]1CCCC[C@H]1CC[C@H]1CNCCN1S(=O)(=O)c1ccccc1)C(c1ccc(F)cc1)c1ccc(F)cc1 [Example 353, 4-fluoro-beta-(4-fluorophenyl)-N-[(1R,2S)-2-{2-[(2S)-1-(phenylsulfonyl)piperazin-2-yl]ethyl}cyclohexyl]-L-phenylalaninamide] — 4.6-fold lower, 0.54 µM
- C[C@H]1CNC[C@H](CCc2c(F)cncc2NC(=O)[C@@H](N)[C@@H](c2ccc(Cl)cc2)c2cccc(F)c2)N1S(=O)(=O)c1ccccc1 [Example 113, (βS)-β-(4-chlorophenyl)-3-fluoro-N-(5-fluoro-4-{2-[(2S,6S)-6-methyl-1-(phenylsulfonyl)piperazin-2-yl]ethyl}pyridin-3-yl)-L-phenylalaninamide] — 100-fold lower, 0.025 µM
- COC(=O)N[C@H](C(=O)Nc1cccc(F)c1CC[C@H]1CNC[C@@H](C)N1S(=O)(=O)c1ccccc1)C1(c2ccc(Cl)cc2)CCOCC1 [Example 275, methyl {(1S)-1-[4-(4-chlorophenyl)tetrahydro-2H-pyran-4-yl]-2-[(3-fluoro-2-{2-[(2S,6R)-6-methyl-1-(phenylsulfonyl)piperazin-2-yl]ethyl}phenyl)amino]-2-oxoethyl}carbamate] — 130-fold lower, 0.019 µM
- COC(=O)N[C@H](C(=O)Nc1cccc(F)c1CC[C@H]1CNC[C@H](C)N1S(=O)(=O)c1ccccc1)[C@@H](c1ccc(Cl)cc1)C(C)C [Example 111, (βR)-4-chloro-N-(3-fluoro-2-{2-[(2S,6S)-6-methyl-1-(phenylsulfonyl)piperazin-2-yl]ethyl}phenyl)-Nα-(methoxycarbonyl)-β-(1-methylethyl)-L-phenylalaninamide] — 74-fold lower, 0.034 µM
- COC(=O)N[C@H](C(=O)Nc1cccc(F)c1CC[C@H]1CNC[C@H](C)N1S(=O)(=O)C1CC1)[C@H](c1cccc(F)c1)c1cccc(Cl)c1 [Example 175, (βR)-3-chloro-N-(2-{2-[(2S,6S)-1-(cyclopropylsulfonyl)-6-methylpiperazin-2-yl]ethyl}-3-fluorophenyl)-β-(3-fluorophenyl)-Nα-(methoxycarbonyl)-L-phenylalaninamide] — 23-fold lower, 0.11 µM
- N[C@H](C(=O)Nc1cncc(F)c1CC[C@H]1CNCCN1S(=O)(=O)c1ccccc1)[C@@H](c1ccc(Cl)cc1)c1cccc(F)c1 [Example 35, (βS)-4-chloro-β-(3-fluorophenyl)-N-(5-fluoro-4-{2-[(2S)-1-(phenylsulfonyl)piperazin-2-yl]ethyl}pyridin-3-yl)-L-phenylalaninamide] — 190-fold lower, 0.013 µM
- O=C(C[C@@H](c1ccc(F)cc1)c1cc(F)cc(F)c1)Nc1cncc(F)c1CC[C@H]1CNCCN1C(=O)c1cccc(OC(F)(F)F)c1 [Example 346, (3S)-3-(3,5-difluorophenyl)-3-(4-fluorophenyl)-N-(5-fluoro-4-{2-[(2S)-1-{[3-(trifluoromethoxy)phenyl]carbonyl}piperazin-2-yl]ethyl}pyridin-3-yl)propanamide] — 2.9-fold lower, 0.86 µM
- COC(=O)N[C@H](C(=O)Nc1cccc(F)c1CC[C@H]1CNC[C@@H](C)N1S(=O)(=O)c1ccccc1)[C@@H](c1ccc(Cl)cc1)C(C)C [Example 112, (βR)-4-chloro-N-(3-fluoro-2-{2-[(2S,6R)-6-methyl-1-(phenylsulfonyl)piperazin-2-yl]ethyl}phenyl)-Nα-(methoxycarbonyl)-β-(1-methylethyl)-L-phenylalaninamide] — 130-fold lower, 0.019 µM
- C[C@@H]1CNC[C@H](CCc2c(F)cncc2NC(=O)[C@@H](N)[C@@H](c2ccc(Cl)cc2)C2CCOCC2)N1S(=O)(=O)c1ccc(Cl)cc1 [Example 298, (βR)-4-chloro-N-[4-(2-{(2S,6R)-1-[(4-chlorophenyl)sulfonyl]-6-methylpiperazin-2-yl}ethyl)-5-fluoropyridin-3-yl]-β-(tetrahydro-2H-pyran-4-yl)-L-phenylalaninamide] — 69-fold lower, 0.036 µM
